Test results reported in US4200578A, “Thiazole derivatives” (Bristol-Myers Company, priority 1978, dated 1980).
Where two headings read alike, the source gives them in different places. One block for each compound: values may come before it.

How the values were obtained:
[1] = molecular target: T1, histamine H2-receptor (isolated guinea pig right atria) (Cavia porcellus, UniProt P47747); experiment: Histamine H2-receptor antagonism, isolated guinea pig right atria assay; details: for Histamine ED50 with 95% confidence limits, after test compound: ED50 of histamine in presence of test compound 3 × 10^-5 M, 30 minute incubation, N = 8 (cimetidine), 2 (BL-6040, BL-6044); for potency as histamine H2-receptor antagonist compared with cimetidine: isolated guinea pig atria (in vitro); for Concentration-Response Curve Displacement Factor: test compound 3 × 10^-5 M
T1 construct: The spontaneously beating right atrium was dissected free from other tissues; from tissue; host or cells: spontaneously beating right atrium of male Hartley strain guinea pigs
T1 sequence (P47747 whole entry): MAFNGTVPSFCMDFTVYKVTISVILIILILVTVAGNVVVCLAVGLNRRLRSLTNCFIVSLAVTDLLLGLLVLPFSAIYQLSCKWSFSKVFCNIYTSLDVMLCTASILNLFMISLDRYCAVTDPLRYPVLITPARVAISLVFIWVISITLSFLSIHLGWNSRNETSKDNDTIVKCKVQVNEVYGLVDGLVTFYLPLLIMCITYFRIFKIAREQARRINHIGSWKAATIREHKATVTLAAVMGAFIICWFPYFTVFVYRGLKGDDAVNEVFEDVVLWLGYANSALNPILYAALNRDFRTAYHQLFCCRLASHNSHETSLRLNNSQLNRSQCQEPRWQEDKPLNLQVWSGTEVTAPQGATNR
Experimental: The present comparative studies were carried out using a modification of the procedure reported by Reinhardt et al., Agents and Actions, 4, 217 (1974).
Male Hartley strain guinea pigs (350-450 gm.) were sacrificed by a blow on the head. The heart was excised and placed in a Petri dish of oxygenated (95% O2, 5% CO2) modified Krebs solution (g./liter: NaCl 6.6, KCl 0.35, MgSO4.7 H2 O 0.295, KH2 PO4 0.162, CaCl2 0.238, NaHCO3 2.1 and dextrose 2.09). The spontaneously beating right atrium was dissected free from other tissues and a silk thread (4-0) attached to each end. The atrium was suspended in a 20 ml. muscle chamber containing oxygenated modified Krebs solution maintained at 32° C. Atrial contractions were recorded isometrically by means of a Grass FT 0.03 force displacement transducer and recordings of contractile force and rate were made with Beckman RP Dynograph.
A resting tension of 1 g. was applied to the atrium and it was allowed to equilibrate for 1 hour.
Concentration-response curve displacement factors were calculated as follows: [formula] The factors obtained for BL-6040 and BL-6044 were then expressed as ratios of the factor obtained for cimetidine. [formula]

gastric acid output = experiment: Gastric antisecretory activity in the two hour pylorus ligated (Shay) rat; format: in vivo, rat (male Long Evans); details: for ED50: Rattus norvegicus, 2 h; for ED50 / Percent Inhibition Acid Output / Potency Ratio: ip; for potency as inhibitor of gastric acid secretion compared with cimetidine: rats (in vivo); for Potency Ratio: relative to cimetidine (1.0)
From the text: Determination of Gastric Antisecretory Activity in the Two Hour Pylorus Ligated (Shay) Rat
The pyloric ligation procedure in the rat was designed by Shay et al., Gastroenterology, 5, 53 (1945) for the study of perforating gastric ulcers; however, as the method became known, it was also employed as a means of studing rat gastric secretion, Shay et al., Gastroenterology, 26, 906 (1954), Brodie, D. A., Am. J. Dig. Dis., 11, 231 (1966). A modification of this procedure is presently used to evaluate compounds for gastric antisecretory activity.
Male Long Evans rats, 280-300 gm., are used. The animals are placed in individual cages and fasted for 24 hours with free access to water. Under ether anesthesia, the stomach is reached through a midline incision, and a cotton-thread ligature is placed around the pylorus. After wound closure, ether administration is stopped and either cimetidine, BL-6040, BL-6044 or vehicle is administered intraperitoneally in a volume of […]. All compounds are solubilized with one equivalent of HCl and brought to the proper volume with water. The animals are returned to their cages from which the water bottles have been removed and two hours later are sacrificed with ether. The stomach is removed and the two hour gastric collection is drained into a graduated test tube for volume determination. Titratable acidity is measured by titrating a one ml. sample to pH 7.0 with 0.02 NaOH, using an Autoburet and electrometric pH meter (Radiometer). Titratable acid output is calculated in microequivalents by mutiplying the volume in milliliters by the acid concentration in milliequivalents per liter. The percent inhibition of acid output is calculated as follows [formula]

gastric secretion = details: animals and man; cited from earlier work
histamine H2-receptor = details: cited from earlier work
[2] = cited from earlier work
[3] = in vivo; cited from earlier work
peptic ulcer disease = details: clinical evaluation; cited from earlier work
[4] = inhibition of gastric acid output, two hours, read-out: ED50
[5] = inhibition of gastric acid output

- Histamine ED50 with 95% confidence limits, after test compound [1]: 20.79 µg/mL
- potency as histamine H2-receptor antagonist compared with cimetidine [1]: more potent than cimetidine
- Concentration-Response Curve Displacement Factor [1]: 46.20
SMILES: C#CCNC(=C[N+](=O)[O-])NCCSCc1nccs1 [BL-6040, 1-Nitro-2-(2-propynylamino)-2-{2-[(thiazol-2-yl)methylthio]ethylamino}ethylene]
- ED50 (gastric acid output; [4]): 4.11 µmol/kg
- Percent Inhibition Acid Output (gastric acid output; 5 μMole/kg, two hours): 53%
- Percent Inhibition Acid Output (gastric acid output; 10 μMole/kg, two hours): 69%
- Percent Inhibition Acid Output (gastric acid output; 20 μMole/kg, two hours): 80%
- potency as inhibitor of gastric acid secretion compared with cimetidine (gastric acid output): more potent than cimetidine
- Potency Ratio (gastric acid output; [5]): 2.93

SMILES: CNC(=S)NCCCCc1cnc[nH]1 [Burimamide]
- inhibition of gastric secretion (gastric secretion): inhibits gastric secretion in animals and man
- H2-receptor antagonism (histamine H2-receptor): a competitive antagonist of these receptors
- oral absorption ([2]; in vivo, po): poor

- Histamine ED50 with 95% confidence limits, after test compound [1]: 14.25 µg/mL
- potency as histamine H2-receptor antagonist compared with cimetidine [1]: more potent than cimetidine
- Concentration-Response Curve Displacement Factor [1]: 43.18
SMILES: C#CCNC(=NCCSCc1nccs1)NC#N [BL-6044, N-Cyano-N'-(2-propyn-1-yl)-N"-{2-[(thiazol-2-yl)methylthio]ethyl}guanidine]
- ED50 (gastric acid output; [4]): 5.73 µmol/kg
- Percent Inhibition Acid Output (gastric acid output; 5 μMole/kg, two hours): 52%
- Percent Inhibition Acid Output (gastric acid output; 10 μMole/kg, two hours): 58%
- Percent Inhibition Acid Output (gastric acid output; 20 μMole/kg, two hours): 73%
- potency as inhibitor of gastric acid secretion compared with cimetidine (gastric acid output): more potent than cimetidine
- Potency Ratio (gastric acid output; [5]): 2.11

SMILES: CN/C(=N/CCSCc1nc[nH]c1C)NC#N [Cimetidine, reference compound]
- Histamine ED50 with 95% confidence limits, after test compound [1]: 4.80 µg/mL
- Concentration-Response Curve Displacement Factor [1]: 25.26
- ED50 (gastric acid output): 12.1 µmol/kg
- Percent Inhibition Acid Output (gastric acid output; 5 μMole/kg, two hours): 26%
- Percent Inhibition Acid Output (gastric acid output; 10 μMole/kg, two hours): 45%
- Percent Inhibition Acid Output (gastric acid output; 20 μMole/kg, two hours): 76%
- H2-receptor antagonism (histamine H2-receptor): as effective an H2 antagonist as metiamide
- half-life ([2]; in vivo): relatively short
- toxicity (agranulocytosis) [3]: without producing agranulocytosis
- efficacy in the treatment of peptic ulcer disease (peptic ulcer disease): effective therapeutic agent in the treatment of peptic ulcer disease

SMILES: C/N=C(\S)NCCSCc1[nH]cnc1C [Metiamide]
- H2-receptor antagonism (histamine H2-receptor): more potent than burimamide
- oral activity ([2]; man): orally active in man
- toxicity (agranulocytosis) [3]: toxicity (agranulocytosis)
